From patent US20240391862A1, “(1,4,5-TRISUBSTITUTED-1H-PYRAZOL-3-YL)OXY-2-ALKOXY ALKYL ACIDS AND THEIR DERIVATIVES, THEIR SALTS AND THEIR USE AS HERBICIDAL AGENTS” (Bayer AKtiengesellschaft, priority 2021, published 2024)

Key:
[1] = system: ABUTH; test: Post-emergence herbicidal effect, greenhouse pot test; type: in vivo, Abutilon theophrasti; settings: Abutilon theophrasti, 504 h, visual rating about 3 weeks after treatment, read-out: Post-emergence effect against ABUTH
Summary of the method: (§1)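 Greenhouse pot test: weeds and crops sown in sandy loam, sprayed post-emergence at one-leaf stage (2–3 weeks after sowing) with WP or EC formulations plus 0.5% additive at 600 l/ha water, rates 20–320 g/ha. Visual rating about 3 weeks later versus untreated controls (100% = dead, 0% = as control).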

[2] = system: AVEFA; test: as above; type: in vivo, Avena fatua; settings: Avena fatua, 504 h, visual rating about 3 weeks after treatment, read-out: Post-emergence effect against AVEFA
Summary of the method: as §1

[3] = system: DIGSA; test: as above; type: in vivo, Digitaria sanguinalis; settings: Digitaria sanguinalis, 504 h, visual rating about 3 weeks after treatment, read-out: Post-emergence effect against DIGSA
Summary of the method: as §1

[4] = system: AMARE; test: as above; type: in vivo, Amaranthus retroflexus; settings: Amaranthus retroflexus, 504 h, 320 g/ha, visual rating about 3 weeks after treatment, read-out: Post-emergence effect against AMARE
Summary of the method: as §1

[5] = system: POLCO; test: as above; type: in vivo, Fallopia convolvulus; settings: Fallopia convolvulus, 504 h, read-out: Post-emergence effect against POLCO in %
Summary of the method: as §1

[6] = system: ALOMY; test: as above; type: in vivo, Alopecurus myosuroides; settings: Alopecurus myosuroides, 504 h, visual rating about 3 weeks after treatment, read-out: Post-emergence effect against ALOMY
Summary of the method: as §1

[7] = system: PHBPU; test: as above; type: in vivo, Ipomoea purpurea; settings: Ipomoea purpurea, 504 h, read-out: Post-emergence effect against PHBPU in %
Summary of the method: as §1

[8] = system: ECHCG; test: as above; type: in vivo, Echinochloa crus-galli; settings: Echinochloa crus-galli, 504 h; for pest or weed control at 80 g/ha / pest or weed control at 320 g/ha: read-out: Post-emergence effect against ECHCG in %
Summary of the method: as §1

[9] = system: KCHSC; test: as above; type: in vivo; settings: for pest or weed control at 80 g/ha / pest or weed control at 320 g/ha: 504 h, read-out: Post-emergence effect against KCHSC in %
Summary of the method: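 Greenhouse plants in sandy loam, sprayed post-emergence at the one-leaf stage (2–3 weeks after sowing) with WP or EC formulations in water plus 0.5% additive at 600 l/ha. Rates 20 to 320 g/ha. Activity rated visually after about 3 weeks against untreated controls (0% like control, 100% dead).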

[10] = system: VIOTR; test: as above; type: in vivo, Viola tricolor; settings: Viola tricolor, 504 h, read-out: Post-emergence effect against VIOTR in %
Summary of the method: as §1

[11] = system: LOLRI; test: as above; type: in vivo, Lolium rigidum; settings: Lolium rigidum, 504 h, read-out: Post-emergence effect against LOLRI in %
Summary of the method: as §1

[12] = system: ZEAMX; test: Post-emergence herbicidal effect and crop plant compatibility, greenhouse pot test; type: in vivo, Zea mays; settings: one-leaf stage, rated visually after about 3 weeks vs untreated controls; for plant injury at 20 g/ha / plant injury at 80 g/ha: Zea mays, 504 h; for plant injury at 20 g/ha: read-out: Post-emergence effect at 20 g/ha against ZEAMX in %; for plant injury at 80 g/ha: read-out: Post-emergence effect at 80 g/ha against ZEAMX in %
Summary of the method: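 Sandy loam pots, greenhouse. One-leaf stage (2–3 wk after sowing) foliar spray; WP/EC in water + 0.5% additive, 600 l/ha; 20–320 g/ha. Visual score ~3 wk, 0–100% vs untreated.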

[13] = system: VERPE; test: Post-emergence herbicidal effect, greenhouse pot test; type: in vivo, Veronica persica; settings: Veronica persica, 504 h, read-out: Post-emergence effect against VERPE in %
Summary of the method: as §1

[14] = system: SETVI; test: as above; type: in vivo, Setaria viridis; settings: Setaria viridis, 504 h, read-out: Post-emergence effect against SETVI in %
Summary of the method: as §1

[15] = system: MATIN; test: as above; type: in vivo, Tripleurospermum inodorum; settings: Tripleurospermum inodorum, 504 h, read-out: Post-emergence effect against MATIN in %
Summary of the method: as §1

SMILES | pest or weed control at 80 g/ha [1] | pest or weed control at 320 g/ha [1] | pest or weed control at 80 g/ha [2] | pest or weed control at 320 g/ha [2] | pest or weed control at 320 g/ha [3] | pest or weed control at 320 g/ha [4] | pest or weed control at 80 g/ha [5] | pest or weed control at 320 g/ha [5] | pest or weed control at 320 g/ha [6] | pest or weed control at 80 g/ha [7] | pest or weed control at 320 g/ha [7] | pest or weed control at 80 g/ha [8] | pest or weed control at 320 g/ha [8] | pest or weed control at 80 g/ha [10] | pest or weed control at 320 g/ha [10] | pest or weed control at 320 g/ha [11] | plant injury at 20 g/ha [12] | pest or weed control at 320 g/ha [13] | pest or weed control at 320 g/ha [14] | pest or weed control at 320 g/ha [15] | further results
CCOC(=O)C(OC)Oc1nn(-c2ncccc2F)c(-c2ccc(F)nc2)c1Br (stereo not drawn) [Example I-14] | 90% | 90% | 90% | 90% | 90% | 80% | 80% | 80% | 90% | 80% | 90% | 90% | 90% | 90% | 90% | 90% | 0% | 90% | 90% | 90% | pest or weed control at 80 g/ha [3]: 80%; pest or weed control at 80 g/ha ([9]; 80 g/ha): 90%; pest or weed control at 320 g/ha ([9]; 320 g/ha): 90%; pest or weed control at 80 g/ha [11]: 90%
COC(=O)C(OC)Oc1nn(-c2ncccc2F)c(-c2ccc(F)nc2)c1C1CC1 (stereo not drawn) [Example I-40] | 90% | 90% | 80% | 90% | 90% | 80% | 90% | 90% | 90% | 90% | 90% | 90% | 90% | 90% | 90% | 90% | 0% | 90% | 90% | 80% | Post-emergence effect against KCHSC in % ([9]; 80 g/ha): 90%; Post-emergence effect against KCHSC in % ([9]; 320 g/ha): 90%; pest or weed control at 80 g/ha [11]: 90%; Post-emergence effect at 320 g/ha against ZEAMX in % ([12]; 320 g/ha): 0%; plant injury at 80 g/ha [12]: 0%
COC(=O)C(OC)Oc1nn(-c2ncccc2F)c(-c2ccc(F)nc2)c1C(F)(F)F (stereo not drawn) [Example I-41, Methyl {[1-(3-fluoropyridin-2-yl)-5-(6-fluoropyridin-3-yl)-4-(trifluoromethyl)-1H-pyrazol-3-yl]oxy}(methoxy)acetate] | 90% | 90% | 80% | 90% | 90% | 90% | 90% | 90% | 90% | 90% | 90% | – | 90% | 80% | 90% | 90% | 0% | 90% | 90% | 80% | pest or weed control at 80 g/ha [3]: 80%; pest or weed control at 80 g/ha ([9]; 80 g/ha): 80%; pest or weed control at 320 g/ha ([9]; 320 g/ha): 90%; plant injury at 80 g/ha [12]: 0%
CCOC(=O)C(OC)Oc1nn(-c2ncccc2F)c(-c2ccc(F)nc2)c1Cl (stereo not drawn) [Example I-48] | 80% | 90% | 90% | 90% | 90% | 80% | 80% | 80% | 90% | 90% | 90% | 90% | 90% | 90% | 90% | 90% | 0% | 90% | 90% | 90% | pest or weed control at 80 g/ha [3]: 80%; pest or weed control at 20 g/ha ([5]; 20 g/ha): 80%; pest or weed control at 80 g/ha ([9]; 80 g/ha): 80%; pest or weed control at 320 g/ha ([9]; 320 g/ha): 90%; pest or weed control at 20 g/ha ([10]; 20 g/ha): 80%; pest or weed control at 80 g/ha [11]: 90%; pest or weed control at 80 g/ha [13]: 80%; pest or weed control at 80 g/ha [14]: 90%; pest or weed control at 80 g/ha [15]: 80%
COC(Oc1nn(-c2ncccc2F)c(-c2cncc(F)c2)c1C1CC1)C(=O)O (stereo not drawn) [Example I-68] | 80% | 90% | 90% | 90% | 90% | 80% | 80% | 80% | 90% | 90% | 90% | 90% | 90% | 90% | 90% | 90% | 0% | 90% | 90% | 90% | pest or weed control at 80 g/ha ([6]; 80 g/ha): 90%; pest or weed control at 20 g/ha ([8]; 20 g/ha, visual rating about 3 weeks after treatment, read-out: Post-emergence effect against ECHCG): 80%; Post-emergence effect against KCHSC in % ([9]; 20 g/ha): 90%; pest or weed control at 80 g/ha ([9]; 80 g/ha): 90%; pest or weed control at 320 g/ha ([9]; 320 g/ha): 90%; pest or weed control at 80 g/ha [13]: 90%; pest or weed control at 80 g/ha [14]: 90%; pest or weed control at 80 g/ha [15]: 80%
